20 compounds from PMC6522510 (Nature Communications, 2019) can be followed below.

Common to all, as to assay: cells
Common to all, as to design: species or system AML cell lines (8); Secondary HTS, 10-point dose-response in triplicate, Cell Titer Glo viability, four-parameter fit EC50
For orientation: In ATP-based viability assays light output follows the ATP content of the culture.

Assay [1] has as its system CMK. To be noted: Homo sapiens, read-out: CMK.
For assay [2], the system named is ML-2. The settings on record: Homo sapiens, read-out: ML-2.
For assay [3], the system named is MOLM-13. To be noted: Homo sapiens, read-out: MOLM-13.
The test system of assay [4] is CHRF288-11. The settings on record: read-out: CHRF288-11.
The subject of assay [5] is MV4-11. To be noted: Homo sapiens, read-out: MV4-11.
In assay [6] the test system is U937. To be noted: Homo sapiens, read-out: U937.
Assay [7] deals with CMS. To be noted: read-out: CMS.
In assay [8] the test system is M07e. To be noted: M-07e, read-out: M07e.

SMILES strings stand for the structures. pEC50: −log10 of the molar value. Counter-ions that a name gives are not always drawn. Like-named read-outs stand apart in the source and are kept apart here.

With `Clc1ccc(-c2csc(NN=C3CCCC3)n2)cc1` [SJ000784270, CPTH2], the pEC50 in assay [1] (CMK, 72 h) was under 5.00; in assay [2] (ML-2, 72 h) it was under 5.00; in assay [3] (MOLM-13, 72 h) it was under 5.00; in assay [4] (72 h), under 5.00; in assay [5] (MV4-11, 72 h), under 5.00; in assay [6] (U-937, 72 h), under 5.00. For the same compound, the pEC50 in assay [7] (72 h) and in assay [8] (72 h) was under 5.00 in each case.

In the case of `Cc1[nH]c(/C=C2\C(=O)Nc3ccccc32)c(C)c1CCC(=O)O` [ORANTINIB], the pEC50 in assay [1] (CMK, 72 h) is under 5.00; in assay [2] (ML-2, 72 h) it was under 5.00; in assay [3] (MOLM-13, 72 h) it was under 5.00; in assay [4] (72 h), under 5.00; in assay [5] (MV4-11, 72 h), under 5.00; in assay [6] (U-937, 72 h), under 5.00. Further, the pEC50 in assay [7] (72 h) and in assay [8] (72 h) was under 5.00 each time.

`Cc1ccc(C(=O)c2cc(/C=C/C(=O)NO)n(C)c2)cc1` [SJ000833840, MC 1293]: the pEC50 is 5.06 in assay [1] (CMK, 72 h); under 5.00 in assay [2] (ML-2, 72 h); under 5.00 in assay [3] (MOLM-13, 72 h); under 5.00 in assay [4] (72 h); under 5.00 in assay [5] (MV4-11, 72 h); under 5.00 in assay [6] (U-937, 72 h). The pEC50 is under 5.00 in assay [7] (72 h) and 6.35 in assay [8] (72 h).

`C=C1C(=O)O[C@@H](CCC)[C@@H]1C(=O)O` (racemic) [SJ000784258, BUTYROLACTONE 3]: the pEC50 is under 5.00 in assay [1] (CMK, 72 h); under 5.00 in assay [2] (ML-2, 72 h); 5.74 in assay [3] (MOLM-13, 72 h); under 5.00 in assay [4] (72 h); under 5.00 in assay [5] (MV4-11, 72 h); under 5.00 in assay [6] (U-937, 72 h). Besides, the pEC50 in assay [7] (72 h) and in assay [8] (72 h) was under 5.00 in each case.

Regarding `C[C@@H]1NC(=O)[C@H]2CCCN2C(=O)[C@H](CCCCCC(=O)[C@@H]2CO2)NC(=O)[C@@H](C)NC1=O` [SJ000785910, HC TOXIN], the pEC50 is under 5.00 in assay [1] (72 h cell viability); 6.96 in assay [2] (72 h cell viability); 6.82 in assay [3] (72 h cell viability); 7.30 in assay [4] (72 h cell viability); under 5.00 in assay [5] (72 h cell viability); 7.49 in assay [6] (U-937, 72 h cell viability). Moreover, the pEC50 in assay [7] (72 h cell viability) is 7.54; in assay [8] (72 h cell viability) it was 7.68.

`CC(C)(C#N)c1ccc(N2C(=O)OCc3cnc4ccc(-c5cnc6ccccc6c5)cc4c32)cc1` [SJ000833848, ETP-46464]: the pEC50 in assay [1] (CMK, 72 h) was 6.14; in assay [2] (ML-2, 72 h), 5.44; in assay [3] (MOLM-13, 72 h), under 5.00; in assay [4] (72 h), 5.08; in assay [5] (MV4-11, 72 h), under 5.00; in assay [6] (U-937, 72 h), under 5.00. Further, the pEC50 was 5.28 in assay [7] (72 h) and under 5.00 in assay [8] (72 h).

Turning to `O=C(Nc1ccccc1-c1cn2c(CN3CCNCC3)csc2n1)c1cnc2ccccc2n1` [SJ000784238, SRT1720], the pEC50 was under 5.00 in assay [1] (CMK, 72 h); under 5.00 in assay [2] (ML-2, 72 h); under 5.00 in assay [3] (MOLM-13, 72 h); 5.25 in assay [4] (72 h); under 5.00 in assay [5] (MV4-11, 72 h); 5.82 in assay [6] (U-937, 72 h). Moreover, the pEC50 was under 5.00 in assay [7] (72 h) and 5.36 in assay [8] (72 h).

Turning to `CC(N[C@H]1C[C@@H]1c1ccccc1)c1ccc2c(c1)OCCO2` (stereo partly shown) [SJ000832930, LSD1-C76], the pEC50 is under 5.00 in assay [1] (CMK, 72 h); under 5.00 in assay [2] (ML-2, 72 h); under 5.00 in assay [3] (MOLM-13, 72 h); under 5.00 in assay [4] (72 h); 9.00 in assay [5] (MV4-11, 72 h); under 5.00 in assay [6] (U-937, 72 h). Moreover, the pEC50 in assay [7] (72 h) and in assay [8] (72 h) was under 5.00 throughout.

Consider `COc1ccc2c(c1OC)C(=O)O[C@@H]2[C@H]1c2c(cc3c(c2OC)OCO3)CCN1C` [NOSCAPINE HYDROCHLORIDE], for which the pEC50 is under 5.00 in assay [1] (CMK, 72 h); under 5.00 in assay [2] (ML-2, 72 h); under 5.00 in assay [3] (MOLM-13, 72 h); under 5.00 in assay [4] (72 h); under 5.00 in assay [5] (MV4-11, 72 h); under 5.00 in assay [6] (U-937, 72 h). In addition, the pEC50 in assay [7] (72 h) and in assay [8] (72 h) was under 5.00 in each case.

For `CCn1c(=O)c(-c2cc[nH]n2)cc2c(C)nc(N)nc21` [SAR245409], the pEC50 in assay [1] (CMK, 72 h) was under 5.00; in assay [2] (ML-2, 72 h) it was under 5.00; in assay [3] (MOLM-13, 72 h), under 5.00; in assay [4] (72 h), under 5.00; in assay [5] (MV4-11, 72 h) it was under 5.00; in assay [6] (U-937, 72 h), under 5.00. Further, the pEC50 in assay [7] (72 h) and in assay [8] (72 h) was under 5.00 in each case.

As to `O=C1NC(=O)/C(=C/c2cccc(C(F)(F)F)c2)S1` [SJ000006739, SMI-4A], the pEC50 in assay [1] (CMK, 72 h) is under 5.00; in assay [2] (ML-2, 72 h), under 5.00; in assay [3] (MOLM-13, 72 h) it was under 5.00; in assay [4] (72 h), under 5.00; in assay [5] (MV4-11, 72 h), under 5.00; in assay [6] (U-937, 72 h) it was under 5.00. The pEC50 in assay [7] (72 h) and in assay [8] (72 h) was under 5.00 each time.

On to `CC(C)c1cccc(C(C)C)c1N1C(=O)c2ccc(O)cc2C1=O` [SJ000834149, 5HPP-33], for which the pEC50 in assay [1] (CMK, 72 h) was under 5.00; in assay [2] (ML-2, 72 h) it was 5.24; in assay [3] (MOLM-13, 72 h), under 5.00; in assay [4] (72 h) it was under 5.00; in assay [5] (MV4-11, 72 h) it was under 5.00; in assay [6] (U-937, 72 h), 5.17. Further, the pEC50 is 5.08 in assay [7] (72 h) and under 5.00 in assay [8] (72 h).

With `Cc1cc([C@@H](C)Nc2ccccc2C(=O)O)c2nc(N3CCOCC3)cc(=O)n2c1` [AZD6482], the pEC50 in assay [1] (CMK, 72 h) was under 5.00; in assay [2] (ML-2, 72 h), under 5.00; in assay [3] (MOLM-13, 72 h) it was under 5.00; in assay [4] (72 h), under 5.00; in assay [5] (MV4-11, 72 h), under 5.00; in assay [6] (U-937, 72 h) it was under 5.00. In addition, the pEC50 in assay [7] (72 h) and in assay [8] (72 h) was under 5.00 in each case.

Take `CCCCNc1ncc2c(-c3ccc(CN4CCN(C)CC4)cc3)cn(C3CCC(O)CC3)c2n1` (stereo not shown) [SJ000821849, UNC2025A]: the pEC50 in assay [1] (CMK, 72 h) was 5.34; in assay [2] (ML-2, 72 h), 5.30; in assay [3] (MOLM-13, 72 h) it was 7.68; in assay [4] (72 h), 5.19; in assay [5] (MV4-11, 72 h), 9.00; in assay [6] (U-937, 72 h), 5.09. For the same compound, the results for the pEC50 in assay [7] (72 h) and in assay [8] (72 h) were under 5.00 and 5.09, respectively.

On to `CC(C)(C#N)c1cc(Cn2cncn2)cc(C(C)(C)C#N)c1` [ANASTROZOLE], for which the pEC50 in assay [1] (CMK, 72 h) was under 5.00; in assay [2] (ML-2, 72 h) it was under 5.00; in assay [3] (MOLM-13, 72 h) it was under 5.00; in assay [4] (72 h), under 5.00; in assay [5] (MV4-11, 72 h), under 5.00; in assay [6] (U-937, 72 h), under 5.00. In addition, the pEC50 in assay [7] (72 h) and in assay [8] (72 h) was under 5.00 throughout.

For `COc1ccc2nc3n[nH]c(C)c3c(NCCOCCO)c2c1` [SJ000832935, SCH 51344], the pEC50 in assay [1] (CMK, 72 h) was under 5.00; in assay [2] (ML-2, 72 h) it was under 5.00; in assay [3] (MOLM-13, 72 h) it was under 5.00; in assay [4] (72 h) it was under 5.00; in assay [5] (MV4-11, 72 h), under 5.00; in assay [6] (U-937, 72 h), under 5.00. The pEC50 in assay [7] (72 h) and in assay [8] (72 h) was under 5.00 throughout.

Take `CCCC(=O)OCOC(=O)C(C)(C)C` [PIVANEX]: the pEC50 was under 5.00 in assay [1] (CMK, 72 h); under 5.00 in assay [2] (ML-2, 72 h); under 5.00 in assay [3] (MOLM-13, 72 h); under 5.00 in assay [4] (72 h); under 5.00 in assay [5] (MV4-11, 72 h); under 5.00 in assay [6] (U-937, 72 h). In addition, the pEC50 in assay [7] (72 h) and in assay [8] (72 h) was under 5.00 in each case.

With `Cc1c(N)nc([C@H](CC(N)=O)NC[C@H](N)C(N)=O)nc1C(=O)N[C@H](C(=O)N[C@H](C)[C@@H](O)[C@H](C)C(=O)N[C@H](C(=O)NCCc1nc(-c2nc(C(=O)NCCC[S+](C)C)cs2)cs1)[C@@H](C)O)[C@@H](OC1OC(CO)C(O)C(O)C1OC1OC(CO)C(O)C(OC(N)=O)C1O)c1cnc[nH]1` (stereo partly shown) [SJ000804032, BLEOMYCIN], the pEC50 in assay [1] (CMK, 72 h) is under 5.00; in assay [2] (ML-2, 72 h), under 5.00; in assay [3] (MOLM-13, 72 h), 5.16; in assay [4] (72 h), under 5.00; in assay [5] (MV4-11, 72 h), under 5.00; in assay [6] (U-937, 72 h), under 5.00. The pEC50 in assay [7] (72 h) and in assay [8] (72 h) was under 5.00 in each case.

`O=C(O)CC[C@H]1CC[C@@](c2cc(F)ccc2F)(S(=O)(=O)c2ccc(Cl)cc2)CC1` [MK-0752]: the pEC50 was under 5.00 in assay [1] (CMK, 72 h); under 5.00 in assay [2] (ML-2, 72 h); under 5.00 in assay [3] (MOLM-13, 72 h); under 5.00 in assay [4] (72 h); under 5.00 in assay [5] (MV4-11, 72 h); under 5.00 in assay [6] (U-937, 72 h). For the same compound, the pEC50 in assay [7] (72 h) and in assay [8] (72 h) was under 5.00 each time.

Turning to `CNCc1ccc(-c2[nH]c3cc(F)cc4c3c2CCNC4=O)cc1` [RUCAPARIB], the pEC50 in assay [1] (CMK, 72 h) is under 5.00; in assay [2] (ML-2, 72 h), under 5.00; in assay [3] (MOLM-13, 72 h), under 5.00; in assay [4] (72 h), under 5.00; in assay [5] (MV4-11, 72 h) it was under 5.00; in assay [6] (U-937, 72 h), under 5.00. Also, the pEC50 in assay [7] (72 h) and in assay [8] (72 h) was under 5.00 in each case.
